Measurements from US20190091187A1 (Orbus Therapeutics, Inc., priority 2016, published 2019).
Where two headings read alike, the source gives them in different places.

Experiments:
Big Blue Rat-2 cells = conditions: 9.1 at 0 mM, cited from earlier work
low-grade gliomas = conditions: adjuvant chemotherapy; recurrent tumors; driver mutations in RB and AKT-mTOR pathways; cited from earlier work
neuroblastoma cells = conditions: arrest of cell division between G1 and mitosis; cited from earlier work
[1] = tested on: newly diagnosed AG and GBM patients; test: Phase 3 study of eflornithine with PCV versus PCV, adverse events; type: in vivo, human; conditions: Eflornithine-PCV minus PCV, N = 500
Text: As used herein, the term “toxicity” refers to any one of the side effects referred to above in Table 2, regardless of the severity of the side effect or its possible effect on the course of treatment.

[2] = tested on: biopsied skin actinic keratosis; conditions: topical, compared to placebo-treated skin, cited from earlier work
[3] = tested on: AG and GBM patients treated at recurrence; conditions: 3.6 g/m^2 every 8 hours, N = 89, cited from earlier work

## Cn1nnc2c(C(N)=O)ncn2c1=O [TMZ, temozolomide]
Big Blue Rat-2 cells; 0.5 mM TMZ
  lacI mutation frequency: 48.9
Big Blue Rat-2 cells; 1 mM TMZ
  lacI mutation frequency: 89.7
low-grade gliomas
  patients whose tumors followed an alternative evolutionary path to high-grade glioma with hypermutation: 6 of 10

## eflornithine
Neuroblastoma cells
  effect on intracellular proteins p21 and p27kip-1: increase
[1]; Toxicity Grade 1
  Anemia, Excess AEs due to Eflornithine: 12.5%
  Anorexia, Excess AEs due to Eflornithine: −1.5%
  Constipation, Excess AEs due to Eflornithine: −1.9%
  Diarrhea, Excess AEs due to Eflornithine: 25.4%
  Fatigue, Excess AEs due to Eflornithine: 4.7%
  Granulocytopenia, Excess AEs due to Eflornithine: 2.4%
  Headache, Excess AEs due to Eflornithine: −1.9%
  Hearing loss, Excess AEs due to Eflornithine: 0.0%
  Leukopenia, Excess AEs due to Eflornithine: −3.4%
  Nausea only, Excess AEs due to Eflornithine: 1.0%
  Pruritis and itching, Excess AEs due to Eflornithine: −0.7%
  Thrombocytopenia, Excess AEs due to Eflornithine: 4.6%
  Vomiting, Excess AEs due to Eflornithine: 5.2%
[1]; Toxicity Grade 2
  Anemia, Excess AEs due to Eflornithine: 15.6%
  Anorexia, Excess AEs due to Eflornithine: 2.5%
  Constipation, Excess AEs due to Eflornithine: −0.7%
  Diarrhea, Excess AEs due to Eflornithine: 17.4%
  Fatigue, Excess AEs due to Eflornithine: 6.9%
  Granulocytopenia, Excess AEs due to Eflornithine: 1.1%
  Headache, Excess AEs due to Eflornithine: 1.3%
  Hearing loss, Excess AEs due to Eflornithine: 1.2%
  Leukopenia, Excess AEs due to Eflornithine: 1.2%
  Nausea only, Excess AEs due to Eflornithine: 0.0%
  Pruritis and itching, Excess AEs due to Eflornithine: 0.9%
  Thrombocytopenia, Excess AEs due to Eflornithine: 10.5%
  Vomiting, Excess AEs due to Eflornithine: 1.1%
[1]; Toxicity Grade 3
  Anemia, Excess AEs due to Eflornithine: 4.5%
  Anorexia, Excess AEs due to Eflornithine: 1.2%
  Constipation, Excess AEs due to Eflornithine: 0.4%
  Diarrhea, Excess AEs due to Eflornithine: 6.0%
  Fatigue, Excess AEs due to Eflornithine: 0.8%
  Granulocytopenia, Excess AEs due to Eflornithine: −3.9%
  Headache, Excess AEs due to Eflornithine: 0.4%
  Hearing loss, Excess AEs due to Eflornithine: 0.8%
  Leukopenia, Excess AEs due to Eflornithine: 0.0%
  Nausea only, Excess AEs due to Eflornithine: 0.9%
  Pruritis and itching, Excess AEs due to Eflornithine: −0.3%
  Thrombocytopenia, Excess AEs due to Eflornithine: 3.5%
  Vomiting, Excess AEs due to Eflornithine: 4.5%
[1]; Toxicity Grade 4
  Anemia, Excess AEs due to Eflornithine: 2.0%
  Anorexia, Excess AEs due to Eflornithine: 0.0%
  Constipation, Excess AEs due to Eflornithine: 0.4%
  Diarrhea, Excess AEs due to Eflornithine: 0.8%
  Fatigue, Excess AEs due to Eflornithine: 0.0%
  Granulocytopenia, Excess AEs due to Eflornithine: 1.8%
  Headache, Excess AEs due to Eflornithine: 0.0%
  Hearing loss, Excess AEs due to Eflornithine: 0.0%
  Leukopenia, Excess AEs due to Eflornithine: 0.9%
  Nausea only, Excess AEs due to Eflornithine: 0.0%
  Pruritis and itching, Excess AEs due to Eflornithine: 0.0%
  Thrombocytopenia, Excess AEs due to Eflornithine: 2.1%
  Vomiting, Excess AEs due to Eflornithine: −1.2%
[2]; P=0.04
  reduced the percentage of p53-positive cells: 22%
[2]
  reduction of the frequency of p53 mutations: not the frequency of p53 mutations
[3]; Toxicity Grade 1
  Ototoxicity, patients (%): (7.9) %
  Ototoxicity, patients n: 7
[3]; Toxicity Grade 2
  Ototoxicity, patients (%): (5.6) %
  Ototoxicity, patients n: 5
[3]; Toxicity Grade 3
  Ototoxicity, patients (%): (6.7) %
  Ototoxicity, patients n: 6
